Like-named read-outs stand apart in the source and are kept apart here.

Data set [1] concerns HepG2 cells. In words: Cytotoxicity on HepG2 cells (MTT). Format: cell-based, human. The note with it: 24 h; for effect on HepG2 cell viability: 30 to 120 µM, MTT; for IC50: Homo sapiens, HepG2, estimated. The method, then:
Cytotoxicity was evaluated using the MTT method. For this purpose, two cell lines were tested: Vero E6 and HepG2. Both cell lines were seeded at 1 × 10^4 cells/well in 96-well microtiter plates and incubated overnight to adhere. The culture medium was carefully aspirated and replaced with 100 µL DMEM plus 100 µL of test compound solutions (CP, CA, and DE), yielding final concentrations ranging from 30 to 120 µM (1% DMSO, v/v). Cells were incubated with test compounds for 24 h at 37 °C in a 5% CO2 atmosphere. MTT solution (0.5 mg/mL) was subsequently added, and cells were incubated for an additional 3 h. The resulting formazan crystals were dried at room temperature for 24 h and dissolved in DMSO. Absorbance was measured at 570 nm (microplate reader EL800, BioTek, Winooski, VT, USA). Cell viability was calculated as previously described in the RAW 264.7 cell viability assay section.

For data set [2], the system named is IL-8, IL-6, and TNF-α cytokines. Also on record: method as in PMID 34884957. To be noted: pretreatment, compared with untreated control; cited from earlier work.
For the next data set, the system named is TNF-α. In words: TNF-α production in M. smegmatis-infected RAW 264.7 cells (ELISA). Format: cell-based, murine. The note with it: 15 μM, 24 h, M. smegmatis MOI 1:1, vs infected control. The method, then: (§1) IL-1β, IL-10, and TNF-α levels in the culture supernatant were determined by sandwich enzyme-linked immunosorbent assay as per the manufacturer’s instructions. Optical density was read at 450 nm using a microplate spectrophotometer (microplate reader EL800, BioTek, Winooski, VT, USA).
In general terms: In an ELISA, binding on a coated surface is turned into a signal by an enzyme label.

Data set [3] concerns M. smegmatis within RAW 264.7 macrophages. In words: Therapeutic potential in M. smegmatis-infected RAW 264.7 cells (CFU). The note with it: 24 h of treatment after infection; for reduction of bacterial burden, M. smegmatis within RAW 264.7: 15 μM, vs untreated controls. Format: cell-based, Mycobacterium smegmatis. The method, then: For the first in vitro infection test with M. smegmatis, RAW 264.7 were seeded in 96-well culture plates at a density of 1 × 10^4 cells/well in DMEM medium (with 10% FBS, without antibiotics) and incubated overnight at 37 °C with 5% CO2 [20]. Infection of RAW 264.7 cells with M. smegmatis mc^2155 was performed at a multiplicity of infection of 1:1 for 2 h at 37 °C with 5% CO2. The medium with non-internalized bacteria was removed, and infected cells were then treated with the tested substances in DMEM: CP (15 µM, 7.5 µM and 3.25 µM), CA (30 µM, 15 µM, 7.5 µM and 3.25 µM), DE (15 µM, 7.5 µM and 3.25 µM), and DP (15 µM, 7.5 µM and 3.25 µM). Macrophages were lysed after 24 h with 0.1% Triton–X100, and these suspensions were diluted and plated on LB. CFU was determined after incubation of plates for 3 days at 37 °C. CFU numbers were expressed as log (CFU/well).

Data set [4] relates to HepG2 cells. More on the design: method as in PMID 32579063. To be noted: 15.80 to 500 µg/mL over 24 h; cited from earlier work.
A further data set concerns IL-1β. In words: IL-1β production in M. smegmatis-infected RAW 264.7 cells (ELISA). Format: cell-based, murine. To be noted: 15 μM, 24 h, M. smegmatis MOI 1:1, vs infected control. The method, then:
as §1

The subject of data set [5] is M. tuberculosis H37Ra in RAW 264.7 macrophages. In words: Preventive effects (pre-incubation) in M. tuberculosis-infected RAW 264.7 cells (CFU). To be noted: for effect on M. tuberculosis CFU counts after pre-incubation and re-treatment: 12 h after infection. It is filed as cell-based, Mycobacterium tuberculosis. How it is done: For the second cellular infection test with M. tuberculosis H37Ra, RAW 264.7 cells were seeded in 96-well culture plates at a density of 4 × 10 ^3 cells/well in DMEM medium (with 10% FBS, without antibiotics) and incubated overnight at 37 °C with 5% CO2. Cells were pre-incubated with the CP (15 µM), DE (15 µM), and CA (30 µM) compounds. Infection of RAW 264.7 cells with M. tuberculosis was performed at a multiplicity of infection of 1:1 for 3 h at 37 °C with 5% CO2 [20]. Infected RAW 264.7 were then lysed with 0.1% Triton-X100, and suspensions were diluted and plated on Middlebrook 7H10 agar plus OADC. Remaining wells were then re-treated with the test substances in DMEM medium. Macrophages were lysed after 12 h and plated on Middlebrook 7H10 containing OADC prior to CFU counting. CFU/well was determined as previously described in the infection experiments using macrophages and M. smegmatis.

Data set [6] has as its system IFN-γ, IL-6, and TNF-α levels. Also on record: method as in PMID 30205459. The note with it: doses of 40 mg/kg, murine model of peritonitis and ulcerative colitis; cited from earlier work.
The next data set deals with NLRP3 inflammasome. In words: NLRP3 evaluation by flow cytometry in M. smegmatis-infected RAW 264.7 cells. To be noted: 15 μM, 24 h. It is filed as cell-based, murine. How it is done:
Cells were placed in a 96-well plate (U bottom) 24 h after treatment in culture. Then, cells were fixed by Cytofix (BD Cytofix™, Franklin Lakes, NJ, USA) and permeabilized by Perm Buffer (BD Phosflow™, San Diego, CA, USA) for 30 min each. Cells were subsequently labeled with an unconjugated anti-NLRP3 antibody, according to the manufacturer’s instructions (BD Biosciences, San Diego, CA, USA). Finally, anti-rat IgG2a (PE) was added for NLRP3 analysis and cells were suspended in PBS and evaluated in a BD Accuri C6 Plus flow cytometer.
First, macrophages were visualized using size (FSC) and granularity (SSC) parameters, and a gate was performed in the cell population. The macrophages were then analyzed by measuring the median fluorescence intensity (MFI) corresponding to antibody labeling. MFI data were normalized to the control group, which was set to 100%.
(Flow cytometry measures light scatter and fluorescence of single cells or particles in a stream.)

The next data set has as its system Vero E6 cells. To be noted: cited from earlier work.

Turning to `COC(=O)/C1=C/c2c([nH]c3ccccc23)/C(C(=O)OC)=C\c2c1[nH]c1ccccc21` [CP, Caulerpin], the “effect on HepG2 cell viability” value with HepG2 cells [1] is reported as “did not significantly reduce cell viability”. Moreover, the IC50 (usually the concentration that gives 50% inhibition) in the data set on HepG2 cells [1] is above 120 µM. Moreover, in data set [2], the “effect on IL-8, IL-6, and TNF-α expression” value is “reduced expression of IL-8, IL-6, and TNF-α cytokines”. Further, the “reduction in TNF-α production” value in the data set on TNF-α was 34.07%. Also, the “reduction of bacterial burden, M. smegmatis within RAW 264.7” value in data set [3] came to 0.230 log10 CFU. Further, the “anticancer activity in HepG2 cells” value in the data set with HepG2 cells [4] is given as “exhibited anticancer activity in HepG2 cells”. In the data set with IL-1β, the “reduction in IL-1β production” value came to 69.35%. In data set [5] (15 μM), the “effect on M. tuberculosis CFU counts after pre-incubation and re-treatment” value (from here on “effect on M. tuberculosis CFU counts”) is reported as “significant reductions in CFU counts”. In data set [6], the “effect on IFN-γ, IL-6, and TNF-α levels” value was “reduced IFN-γ, IL-6, and TNF-α levels”. Also, the “reduction of NLRP3 expression (MFI)” value with NLRP3 inflammasome stood at 29.12%. Moreover, the “effect on Vero E6 viability” value in the data set on Vero E6 cells (589.3 µg/mL) is on record as “maintained their viability”; in the data set on Vero E6 cells (50 to 1000 µM for 72 h), “no effect on Vero E6 viability”.

On to `O=C(O)C1=Cc2c([nH]c3ccccc23)C(C(=O)O)=Cc2c1[nH]c1ccccc21` [CA, caulerpinic acid], for which, in the data set on HepG2 cells [1], the “effect on HepG2 cell viability” value is reported as “did not significantly reduce cell viability” and the IC50 is above 120 µM. Also, in data set [3] (30 μM), the “reduction of bacterial counts, M. smegmatis within RAW 264.7” value is 0.243 log10. Further, the “effect on M. tuberculosis CFU counts” value in data set [5] (30 μM) is recorded as “significant reductions in CFU counts”.

With `CCOC(=O)/C1=C/c2c([nH]c3ccccc23)/C(C(=O)OCC)=C\c2c1[nH]c1ccccc21` [DE, (6E,13E)-diethyl 5,12-dihydrocycloocta[1,2-b:5,6-b′]diindole-6,13-dicarboxylate], in the data set with HepG2 cells [1], the “effect on HepG2 cell viability” value is given as “did not significantly reduce cell viability” and the IC50 was above 120 µM. For the same molecule, the “reduction in TNF-α production” value in the data set with TNF-α is given as 56.94%. Moreover, in data set [3], the “reduction of bacterial burden, M. smegmatis within RAW 264.7” value was 0.430 log10 CFU. Moreover, the “reduction in IL-1β production” value in the data set with IL-1β is 59.82%. Besides, the “effect on M. tuberculosis CFU counts” value in data set [5] (15 μM) was “significant reductions in CFU counts”. Moreover, in data set [5] (15 μM, immediately after 3 h of infection), the “effect of pre-incubation on M. tuberculosis bacterial loads” value was “significantly reduced bacterial loads”. In the data set with NLRP3 inflammasome, the “reduction of NLRP3 expression (MFI)” value worked out at 39.81%.

The record behind these values is article PMC11944515, “Host-Mediated Antimicrobial Effects and NLRP3 Inflammasome Modulation by Caulerpin and Its Derivatives in Macrophage Models of Mycobacterial Infections” (Microorganisms, 2025).
